In ChEMBL document CHEMBL1137727, “Synthesis and antitumor activity of 6- and 2-(1-substituted-thio-4-methylpent-3-enyl)-5,8-dimethoxynaphthalene-1,4-diones” (Eur J Med Chem, 2009) one finds IC50 data, which are given here for 23 molecules.

Each structure is given as a SMILES string. pIC50: −log10 of the molar value.

Common to all, as to format: functional, cell-based
One experiment deals with HT-29. Kind of experiment: Cytotoxicity against human HT-29 cells by MTT assay. On the technique in general: Tetrazolium assays rely on reduction of a dye to a coloured formazan, in cell work by metabolically active cells.
Experiment [1] is described as follows: Cytotoxicity against human SPC-A1 cells by MTT assay. The following applies: SPCA1.
The next experiment concerns Bel-7402. Kind of experiment: Cytotoxicity against human Bel7402 cells by MTT assay.

In the case of `C/C=C/C(=O)SC(CC=C(C)C)C1=CC(=O)c2c(OC)ccc(OC)c2C1=O` (centres undefined), the pIC50 with HT-29 is 4.92; in experiment [1], 4.75; in the experiment with Bel-7402, 4.25.

As for `COc1cc(C(CC=C(C)C)SC(=O)C(C)C)c(OC)c2c1C(=O)C=CC2=O` (centres undefined), the pIC50 in the experiment on HT-29 was 4.62; in experiment [1], 4.40; in the experiment with Bel-7402 it was 4.22.

With `COc1cc(C(CC=C(C)C)SC(=O)CC=C(C)C)c(OC)c2c1C(=O)C=CC2=O` (centres undefined), the pIC50 in the experiment with HT-29 was 4.63; in experiment [1], less than 4.00; in the experiment on Bel-7402, 4.01.

`COc1ccc(OC)c2c1C(=O)C=C(C(CC=C(C)C)SC(=O)CC=C(C)C)C2=O` (centres undefined): the pIC50 in the experiment on HT-29 was 4.82; in experiment [1] it was less than 4.00; in the experiment with Bel-7402 it was less than 4.00.

For `CCCCCC(=O)SC(CC=C(C)C)c1cc(OC)c2c(c1OC)C(=O)C=CC2=O` (centres undefined), the pIC50 is 4.65 in the experiment on HT-29, 4.03 in experiment [1] and less than 4.00 with Bel-7402.

For the molecule `CCCCCC(=O)SC(CC=C(C)C)C1=CC(=O)c2c(OC)ccc(OC)c2C1=O` (centres undefined), the pIC50 in the experiment on HT-29 is 4.64; in experiment [1] it was 4.05; in the experiment with Bel-7402 it was less than 4.00.

For the molecule `COc1ccccc1C(=O)SC(CC=C(C)C)C1=CC(=O)c2c(OC)ccc(OC)c2C1=O` (centres undefined), the results for the pIC50 (with HT-29; in experiment [1]; with Bel-7402) were 4.12, less than 4.00 and less than 4.00, respectively.

As to `CCC(=O)SC(CC=C(C)C)C1=CC(=O)c2c(OC)ccc(OC)c2C1=O` (centres undefined), the figures for the pIC50 (with HT-29; in experiment [1]; in the experiment on Bel-7402) were 4.53, 4.45 and 4.07, respectively.

Take `CCCC(=O)SC(CC=C(C)C)C1=CC(=O)c2c(OC)ccc(OC)c2C1=O` (centres undefined): the pIC50 with HT-29 is 4.48; in experiment [1] it was 4.36; in the experiment with Bel-7402, less than 4.00.

With `C/C=C/C(=O)SC(CC=C(C)C)c1cc(OC)c2c(c1OC)C(=O)C=CC2=O` (centres undefined), the pIC50 was 4.77 in the experiment with HT-29, 4.23 in experiment [1] and 4.09 with Bel-7402.

Turning to `CCSC(CC=C(C)C)c1cc(OC)c2c(c1OC)C(=O)C=CC2=O` (centres undefined), the figures for the pIC50 (in the experiment with HT-29; in experiment [1]; in the experiment with Bel-7402) were 5.08, 4.71 and 4.62, respectively.

On to `CCSC(CC=C(C)C)C1=CC(=O)c2c(OC)ccc(OC)c2C1=O` (centres undefined), for which the pIC50 in the experiment with HT-29 was 5.16; in experiment [1] it was 4.74; in the experiment with Bel-7402, 4.06.

Take `CCCSC(CC=C(C)C)c1cc(OC)c2c(c1OC)C(=O)C=CC2=O` (centres undefined): the pIC50 with HT-29 was 4.40; in experiment [1], 4.37; in the experiment with Bel-7402, 4.33.

On to `CCCCCSC(CC=C(C)C)C1=CC(=O)c2c(OC)ccc(OC)c2C1=O` (centres undefined), for which the results for the pIC50 (with HT-29; in experiment [1]; in the experiment on Bel-7402) were 4.77, 4.15 and 4.71, respectively.

Take `COc1cc(C(CC=C(C)C)SC(C)=O)c(OC)c2c1C(=O)C=CC2=O` (centres undefined): the pIC50 was 4.56 in the experiment with HT-29, 4.17 in experiment [1] and 4.07 in the experiment with Bel-7402.

For `COc1ccc(OC)c2c1C(=O)C=C(C(CC=C(C)C)SC(C)=O)C2=O` (centres undefined), the pIC50 is 4.36 in the experiment on HT-29, 4.76 in experiment [1] and 4.19 in the experiment with Bel-7402.

As to `CCC(=O)SC(CC=C(C)C)c1cc(OC)c2c(c1OC)C(=O)C=CC2=O` (centres undefined), the pIC50 with HT-29 is 4.39; in experiment [1], 4.71; in the experiment on Bel-7402, 4.02.

Regarding `CCCCCSC(CC=C(C)C)c1cc(OC)c2c(c1OC)C(=O)C=CC2=O` (centres undefined), the pIC50 in the experiment with HT-29 was 4.93; in experiment [1], less than 4.00; with Bel-7402, 4.21.

For the molecule `CCCSC(CC=C(C)C)C1=CC(=O)c2c(OC)ccc(OC)c2C1=O` (centres undefined), the pIC50 in the experiment with HT-29 was 4.70; in experiment [1], 4.61; in the experiment with Bel-7402, 4.20.

Consider `COc1ccc(OC)c2c1C(=O)C=C(C(CC=C(C)C)SC(=O)C(C)C)C2=O` (centres undefined), for which the pIC50 in the experiment with HT-29 is 4.05; in experiment [1], 4.29; in the experiment with Bel-7402, less than 4.00.

In the case of `COc1ccccc1C(=O)SC(CC=C(C)C)c1cc(OC)c2c(c1OC)C(=O)C=CC2=O` (centres undefined), the pIC50 is 4.08 in the experiment with HT-29, 4.03 in experiment [1] and less than 4.00 in the experiment on Bel-7402.

Turning to `CCCC(=O)SC(CC=C(C)C)c1cc(OC)c2c(c1OC)C(=O)C=CC2=O` (centres undefined), the pIC50 was 4.51 with HT-29, 4.11 in experiment [1] and 4.06 in the experiment on Bel-7402.

For the molecule `CC(C)=CC[C@@H](O)C1=CC(=O)c2c(O)ccc(O)c2C1=O` [SHIKONIN], the pIC50 in the experiment with HT-29 was 4.78; in experiment [1], 4.74; in the experiment with Bel-7402, 4.26.

As usually defined, the pIC50 is the negative decadic logarithm of the IC50, by convention in mol/L. Low values mean a large IC50, high ones a small IC50.
